This passage reports EC50 and half-life results from patent US20230295259A1 (Protagonist Therapeutics, Inc., priority 2020, published 2023).

One data set deals with LAD2 cells. In kind it is cell-based, human. The gist of the method:
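Compound serial dilutions were added to LAD2 human mast cells for 30 min. β-Hexosaminidase in supernatants and cell lysates was quantified with the fluorogenic substrate 4-methylumbelliferyl-N-acetyl-b-D-glucosaminide. Dose-response curves plotted % β-hexosaminidase release against peptide concentration.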

Data set [1] in a line: Stability in simulated intestinal fluid (FaSSIF with 1% pancreatin). Type of data set: in vitro ADME. The following applies: pig, pH 6.5, Table 2A, 20 μM in FaSSIF with 1% pancreatin, 37° C., percent in brackets not explained, read-out: SIF Half life. How it is done:
FaSSIF was prepared by dissolving 1.2 g porcine pancreatin (Chem-supply, PL378) in 100 mL Blank FaSSIF and stirred at room temperature for 30 minutes. The solution was filtered through 0.45 μm membrane and aliquot and stored at −20° C.
Experimental compounds of interest (20 μM) were incubated with pre-warmed FaSSIF (1% pancreatin in final incubation mixture) at 37° C. Aliquots were taken at various time points up to 24 hours (e.g. 0, 0.25, 1, 3, 6 and 24 hr), and immediately quenched with 4 volumes of organic solvent (acetonitrile/methanol (1:1) and 0.1% formic acid, containing 1 μM internal standard). Quenched samples were stored at 4° C. until the end of the experiment and centrifuged at 4,000 rpm for 10 minutes. The supernatant was diluted 1:1 with deionized water and analyzed using LC-MS. Percentage remaining at each time point was calculated based on the peak area ratio (analyte over internal standard) relative to the initial level at time zero. Half-lives were calculated by fitting to a first-order exponential decay equation using GraphPad.
Compounds of interest (at concentration of 20 μM) were mixed with pre-warmed FaSSIF (1% pancreatin in final working solution). The solution mixture was aliquoted and incubated at 37° C. The number of aliquots required was equivalent to the number of time points (e.g. 0, 0.25, 1, 3, 6 and 24 hr). […]

What is called EC50 is the concentration at which the effect is half-maximal. The low end stands for higher potency in that assay, the high end for lower potency in that assay. The term half-life denotes the time needed for the level to fall by half in the phase considered. In the data set on LAD2 cells, `CC[C@H](C)[C@@H]1NC(=O)[C@@H](NC(=O)[C@@H]2CCCN2C(=O)[C@@H](NC(=O)[C@H](Cc2cnc[nH]2)NC(=O)[C@@H](NC(=O)[C@H](CCC(=O)O)NC(=O)CC(C)C)C(C)O)C(c2ccccc2)c2ccccc2)CSSC[C@@H](C(N)=O)NC(=O)[C@@H](CCCCN)NC(=O)C[C@H](Cc2ccccc2)NC(=O)[C@H](CCCCNC(=O)COCCOCCNC(=O)COCCOCCNC(=O)CCCCCNC(=O)CCCCCCCCCCCCCCCCC(=O)O)NC1=O` (some centres unmarked) [Compound 12, Isovaleric Acid-E-T-H-[Dpa]-P-[Cys]-I-[Lys(1Peg2_1Peg2_Ahx_C18_Diacid)]-[bhPhe]-[(D)Lys]-[Cys]-NH2] yielded an EC50 of 12.9 µM. Also, the half-life at 20 μM in data set [1] is 1.5 h.
